Laboratory results: PubChem BioAssay (NCI)
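Exposure lasted 48 hours, with cells grown in 96-well plates and compounds tested at five concentrations. GI50 = concentration required for 50% inhibition of growth. TGI: total growth inhibition.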

Key:
Assay in all cases: NCI tumour cell line growth inhibition, 48 h
UACC-62 melanoma = tested on: UACC-62 melanoma
KM12 colon = tested on: KM12 colon
HCT-15 colon = tested on: HCT-15 colon
IGROV1 ovarian = tested on: IGROV1 ovarian
HL-60(TB) leukemia = tested on: HL-60(TB) leukemia
OVCAR-4 ovarian = tested on: OVCAR-4 ovarian
OVCAR-5 ovarian = tested on: OVCAR-5 ovarian
MOLT-4 leukemia = tested on: MOLT-4 leukemia
SF-295 CNS = tested on: SF-295 CNS
MCF7 breast = tested on: MCF7 breast

SMILES | TGI (UACC-62 melanoma) [µM] | TGI (KM12 colon) [µM] | TGI (HCT-15 colon) [µM] | TGI (IGROV1 ovarian) [µM] | TGI (HL-60(TB) leukemia) [µM] | TGI (OVCAR-4 ovarian) [µM] | TGI (OVCAR-5 ovarian) [µM] | TGI (MOLT-4 leukemia) [µM] | TGI (SF-295 CNS) [µM] | GI50 (MCF7 breast) [µM] | TGI (MCF7 breast) [µM] | GI50 (UACC-62 melanoma) [µM] | GI50 (KM12 colon) [µM] | GI50 (IGROV1 ovarian) [µM] | GI50 (OVCAR-5 ovarian) [µM] | GI50 (MOLT-4 leukemia) [µM] | GI50 (SF-295 CNS) [µM] | GI50 (HCT-15 colon) [µM] | GI50 (HL-60(TB) leukemia) [µM] | GI50 (OVCAR-4 ovarian) [µM]
CC1=C2CCCC2C/C(=N/Nc2ccc([N+](=O)[O-])cc2[N+](=O)[O-])CC1 (centres undefined) | > 100 | > 100 | > 100 | > 100 | 83.2 | > 100 | > 100 | > 100 | > 100 | – | – | – | – | – | – | – | – | – | – | –
CN(C)CCCNC(=O)c1cc(NC(=O)CCNS(=O)(=O)c2ccc3c(c2)C(=O)c2ccccc2C3=O)cn1C | > 100 | > 100 | – | > 100 | – | – | > 100 | > 100 | > 100 | > 100 | > 100 | > 100 | > 100 | > 100 | > 100 | > 100 | > 100 | – | – | –
CCC[CH2][Sn]([CH2]CCC)([O]C(C)=O)[O]C(C)=O | 2.37 | 3.77 | 3.14 | 1.96 | 1.45 | 3.5 | 2.71 | 4.59 | 3.79 | – | – | 1.09 | 1.66 | 1.32 | 1.23 | 0.505 | 1.85 | 1.43 | 0.524 | 1.79
O=C1C(Cl)=C(N/N=c2/[nH][nH]/c(=N/NC3=C(Cl)C(=O)c4ccccc4C3=O)c3ccccc23)C(=O)c2ccccc21 | – | 20.7 | > 100 | 48.5 | 34.2 | 28.5 | 39.1 | 34.6 | 30.5 | 12.3 | 38.4 | – | 5.16 | 17.7 | 18.7 | 4.9 | 14.2 | 19.8 | 8.45 | 12
CC(=O)/C(=C\c1ccco1)C(=O)Nc1ccccc1 | > 100 | > 100 | > 100 | > 100 | > 100 | > 100 | – | > 100 | > 100 | – | – | – | – | – | – | – | – | – | – | –
COC(=O)CCC(=O)N1Cc2cc(C)ccc2N(C(=O)CCC(=O)OC)Cc2cc(C)ccc21 | > 100 | > 100 | > 100 | > 100 | > 100 | > 100 | > 100 | > 100 | > 100 | – | – | – | – | – | – | – | – | – | – | –
C=C1C(=O)O[C@H]2C[C@@H](C)[C@@H]3CC(=O)OC[C@@]3(C)CC12 (some centres undefined) | 51.9 | 62 | > 100 | > 100 | – | 54.4 | – | 57.3 | 76.2 | – | – | – | – | – | – | – | – | – | – | –
O=C1C/C(=C/c2ccc(/C=C3/CC(=O)N(c4cccc(Br)c4)C3=O)cc2)C(=O)N1c1cccc(Br)c1 | > 100 | > 100 | > 100 | > 100 | > 100 | > 100 | > 100 | 98.6 | > 100 | – | – | – | – | – | – | – | – | – | – | –
COc1cccc(OC(=O)c2ccccc2Nc2ccnc(C(F)(F)F)c2)c1 | 33.9 | – | 12 | > 100 | 15.2 | – | 35.6 | 4.29 | > 100 | 7.29 | > 100 | 3.09 | – | 23.6 | 3.53 | 0.692 | 2.51 | 2.81 | 2.15 | –
CN(C)c1ccc2c(NCCCCCCNc3ccnc4cc(N(C)C)ccc34)ccnc2c1 | > 100 | > 100 | > 100 | – | > 100 | 28.2 | 79.6 | > 100 | 40.3 | – | – | – | – | – | – | – | – | – | – | –
COC12C=CC(CC1)c1c(O)ccc(O)c12 (centres undefined) | > 100 | > 100 | > 55.9 | > 100 | 41.6 | 46.6 | > 100 | > 79 | > 100 | – | – | – | – | – | – | – | – | – | – | –
CC(C)(C(=O)NN)c1ccccc1 | > 100 | > 100 | > 100 | > 100 | > 100 | – | > 100 | > 100 | > 100 | – | > 100 | – | – | – | – | – | – | – | – | –
CCN=C1C=CC(=C(c2ccc(N(C)C)cc2)c2ccc(N(C)C)cc2)c2ccccc21 | – | 0.18 | 1.31 | 0.711 | 0.141 | 1.6 | 1.19 | 2.54 | 0.423 | 0.141 | 1.09 | – | 0.0383 | 0.0701 | 0.215 | 0.202 | 0.122 | 0.294 | 0.0434 | 0.114
COc1cc2c(cc1OC)-c1ccc3cc4c(cc3c1N(CCN1CCCC1)C2)OCO4 | 3 | 1.99 | 3.4 | 2.37 | 2.7 | 6.49 | 4.9 | 3.44 | 3.1 | – | – | 1.07 | 0.538 | 0.517 | 1.34 | 0.228 | 0.441 | 1.5 | 0.882 | 0.858
Cc1ccc2[nH]c(C(=O)NN3C(=O)CSC34CCCCC4C)c(-c3ccccc3)c2c1 (centres undefined) | 26.8 | 34.7 | 39.1 | – | – | 34.2 | 36.1 | 28.4 | 31.9 | 14.9 | 39.2 | 12.8 | 14.9 | – | 19.7 | 9.38 | 16 | 18 | – | 16.5
COc1ccc2c(c1)CCC1C2CCC2(C)C1CCC2(O)CNC(=O)CCCCC1CCSS1 (centres undefined) | 49.4 | > 100 | > 100 | > 100 | – | 45.9 | > 100 | > 100 | 79.6 | 10.3 | 40.8 | 13.9 | 2.26 | 22.7 | > 100 | 1.66 | 19.4 | 3.56 | – | 6.92
Cc1ccc2c(c1)C1(C)OC(CC(N)C1O)O2 (centres undefined) | > 100 | > 100 | > 100 | > 100 | > 100 | – | – | > 100 | > 100 | – | – | – | – | – | – | – | – | – | – | –
CC1CC2C(=O)NC(=O)C2c2[nH]c3ccccc3c21 (centres undefined) | – | > 100 | > 100 | > 100 | > 100 | > 100 | > 100 | > 100 | > 100 | – | – | – | – | – | – | – | – | – | – | –
